# According to US7638535B2, “4-(aminomethyl)-piperidine benzamides as 5HT4-antagonists” (Janssen Pharmaceutica N.V., priority 2003, dated 2009):
# Molecular target: T1, h5-HT4b (Homo sapiens, UniProt Q13639)
# T1 construct: expressed in transfected cells; host or cells: HEK 293 (clone 9), membrane preparation
# Test: 5HT4 antagonism: [3H]GR113808 binding to membranes of h5-HT4b-HEK 293 clone 9 cells
# Details: displacement of [3H]GR113808 0.1 nM, h5-HT4b-HEK 293 membranes, 30 min at 25° C.; read-out: pIC50 (5HT4 antagonistic data) (converted)
# Procedure: h5-HT4b-HEK 293 clone 9 cells were cultured in 150 mm Petri dishes and washed twice with cold PBS. The cells were then scraped from the plates and suspended in 50 mM Tris-HCl buffer, pH 7.4 and harvested by centrifugation at 23,500 rpm for 10 minutes. The pellet was resuspended in 5 mM Tris-HCl, pH 7.4 and homogenized with an Ultra Turrax homogenizer. The membranes were collected by centrifugation at 30,000 rpm for 20 min, resuspended in 50 mM Tris-HCl pH 7.4 and stored at −80° C. For the experiment, assay mixtures (0.5 ml) contained 50 μl of the tritiated ligand (5-HT4 antagonist [^3H]GR113808 0.1 nM) and 0.4 ml membrane preparation (15 μg protein/ml). 50 μl of 10% DMSO was added for total binding. 50 μl of 1 μM of (+)-trans-(1-butyl-3-hydroxy-4-piperidinyl)methyl 8-amino-7-chloro-2,3-dihydro-1,4-benzodioxin-5-carboxylate (a proprietary 5HT4 agonist of Janssen Pharmaceutica) was added for determination of non-specific binding.
# The [^3H]GR113808 assay buffer was 50 mM HEPES-NaOH, pH 7.4. The mixtures were incubated for 30 min at 25° C. The incubation was terminated by filtration over a Unifilter 96 GF/B presoaked in 0.1% polyethylenimine, followed by six washing steps with 50 mM HEPES-NaOH, pH 7.4.
# T1 sequence (Q13639 whole entry): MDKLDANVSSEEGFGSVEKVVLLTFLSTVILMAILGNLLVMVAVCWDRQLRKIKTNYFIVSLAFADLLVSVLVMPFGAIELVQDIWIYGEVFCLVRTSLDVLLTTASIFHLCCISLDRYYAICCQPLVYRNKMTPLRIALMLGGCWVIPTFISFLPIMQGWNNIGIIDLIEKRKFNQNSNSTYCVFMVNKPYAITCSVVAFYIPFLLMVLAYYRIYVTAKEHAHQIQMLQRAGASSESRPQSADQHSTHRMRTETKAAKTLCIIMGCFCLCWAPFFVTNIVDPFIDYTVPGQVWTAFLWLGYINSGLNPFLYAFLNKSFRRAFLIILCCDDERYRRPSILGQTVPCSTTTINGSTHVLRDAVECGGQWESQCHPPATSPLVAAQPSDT
row,Structure (SMILES),IC50
1,CNc1cc2c(c(C(=O)NC[C@@H]3CCN(CCCOC4CCCCC4)C[C@H]3O)c1)OCCO2 [compound 40],6.92 nM
2,COCCCCN1CC[C@@H](CNC(=O)c2cc(N)cc3c2OCCO3)[C@H](O)C1 [compound 41],15.5 nM
3,COCCN1CC[C@@H](CNC(=O)c2cc(N)c(Cl)c3c2OCCO3)[C@H](O)C1 [compound 42],18.6 nM
4,CC1(CCCN2CC[C@@H](CNC(=O)c3cc(N)c(Cl)c4c3OCCO4)[C@H](O)C2)OCCO1 [compound 43],13.2 nM
5,COCCN1CC[C@@H](CNC(=O)c2cc(N)cc3c2OCCCO3)[C@H](O)C1 [compound 45],135 nM
6,CCCCN1CC[C@@H](CNC(=O)c2cc(N)c(Cl)c3c2OCCCO3)[C@H](O)C1 [compound 46],8.32 nM
7,COCCCN1CC[C@@H](CNC(=O)c2cc(N)c(Cl)c3c2OCCCO3)[C@H](O)C1 [compound 47],31.6 nM
8,N#CCCCN1CC[C@@H](CNC(=O)c2cc(N)c(Cl)c3c2OCCCO3)[C@H](O)C1 [compound 48],33.1 nM
9,Nc1cc2c(c(C(=O)NC[C@@H]3CCN(CCCOC4CCCCC4)C[C@H]3O)c1)OCCCO2 [compound 49],25.7 nM
10,Nc1cc(C(=O)NCC2CCN(CC3CCCO3)C[C@H]2O)c2c(c1Cl)OCCCO2 (some centres unmarked) [compound 51],14.5 nM
11,Nc1cc(C(=O)NC[C@@H]2CCN(CCC3OCCO3)C[C@H]2O)c2c(c1Cl)OCCCO2 [compound 52],14.8 nM
12,Nc1cc(C(=O)NC[C@@H]2CCN(CCCCO)C[C@H]2O)c2c(c1Cl)OCCO2 [compound 53],20 nM
13,CNc1cc2c(c(C(=O)NC[C@@H]3CCN(CCCCOC)C[C@H]3O)c1)OCCO2 [compound 54],14.8 nM
14,Nc1cc2c(c(C(=O)NC[C@@H]3CCN(Cc4ccc(F)cc4)C[C@H]3O)c1)OCCCO2 [compound 55],64.6 nM
15,CNc1cc2c(c(C(=O)NC[C@@H]3CCN(Cc4ccc(F)cc4)C[C@H]3O)c1)OCCO2 [compound 56],17.8 nM
16,COCCCCN1CC[C@@H](CNC(=O)c2cc(N)c(Cl)c3c2OCCCO3)[C@H](O)C1 [compound 58],14.1 nM
17,CC1(CCCN2CC[C@@H](CNC(=O)c3cc(N)cc4c3OCCCO4)[C@H](O)C2)OCCO1 [compound 59],51.3 nM
18,CC(=O)CCCN1CC[C@@H](CNC(=O)c2cc(N)cc3c2OCCCO3)[C@H](O)C1 [compound 60],81.3 nM
19,CNc1cc2c(c(C(=O)NC[C@@H]3CCN(CCCC(C)=O)C[C@H]3O)c1)OCCO2 [compound 61],14.5 nM
20,CNc1cc2c(c(C(=O)NC[C@@H]3CCN(CCCCOC)C[C@H]3O)c1)OCCCO2 [compound 62],81.3 nM
21,Nc1cc(C(=O)NC[C@@H]2CCN(Cc3ccc(F)cc3)C[C@H]2O)c2c(c1Cl)OCCO2 [compound 64],15.5 nM
22,Nc1cc(C(=O)NC[C@@H]2CCN(CCCOC3CCCCC3)C[C@H]2O)c2c(c1Cl)OCCCO2 [compound 65],3.55 nM
23,Nc1cc(C(=O)NC[C@@H]2CCN(CCCC(=O)O)C[C@H]2O)c2c(c1Cl)OCCCO2 [compound 66],282 nM
24,CNc1cc2c(c(C(=O)NC[C@@H]3CCN(CCOCCO)C[C@H]3O)c1)OCCCO2 [compound 67],479 nM
25,Nc1cc2c(c(C(=O)NC[C@@H]3CCN(CCOCCO)C[C@H]3O)c1)OCCCO2 [compound 69],490 nM
26,Nc1cc(C(=O)NC[C@@H]2CCN(CCOCCO)C[C@H]2O)c2c(c1Cl)OCCO2 [compound 70],89.1 nM
27,Nc1cc(C(=O)NC[C@@H]2CCN(CCOCCO)C[C@H]2O)c2c(c1Cl)OCCCO2 [compound 72],83.2 nM
28,Nc1cc2c(c(C(=O)NC[C@@H]3CCN(CCCCO)C[C@H]3O)c1)OCCCO2 [compound 73],55 nM
29,CNc1cc2c(c(C(=O)NC[C@@H]3CCN(Cc4ccc(F)cc4)C[C@H]3O)c1)OCCCO2 [compound 74],214 nM

# Second part, the molecule after the results:
row,IC50,Structure (SMILES)
1,30.9 nM,CS(=O)(=O)NCCN1CC[C@@H](CNC(=O)c2cc(N)c(Cl)c3c2OCCCO3)[C@H](O)C1 [compound 75]
2,22.9 nM,CC1(CCCN2CC[C@@H](CNC(=O)c3cc(N)c(Cl)c4c3OCCCO4)[C@H](O)C2)OCCO1 [compound 76]
3,69.2 nM,CNc1cc2c(c(C(=O)NC[C@@H]3CCN(CCCC(C)=O)C[C@H]3O)c1)OCCCO2 [compound 77]
4,9.33 nM,Nc1cc(C(=O)NC[C@@H]2CCN(Cc3ccc(F)cc3)C[C@H]2O)c2c(c1Cl)OCCCO2 [compound 78]
5,39.8 nM,COCCN1CC[C@@H](CNC(=O)c2cc(N)c(Cl)c3c2OCCCO3)[C@H](O)C1 [compound 79]
6,7.59 nM,CC(=O)CCCN1CC[C@@H](CNC(=O)c2cc(N)c(Cl)c3c2OCCCO3)[C@H](O)C1 [compound 80]
7,1150 nM,CNCCCN1CC[C@@H](CNC(=O)c2cc(NC)cc3c2OCCCO3)[C@H](O)C1 [compound 81]
8,6170 nM,N#CCN1CC[C@@H](CNC(=O)c2cc(N)c(Cl)c3c2OCCCO3)[C@H](O)C1 [compound 82]
9,14.8 nM,CC(=O)CCCN1CC[C@@H](CNC(=O)c2cc(N)cc3c2OCCO3)[C@H](O)C1 [compound 83]
10,93.3 nM,CNc1cc2c(c(C(=O)NC[C@@H]3CCN(CCOCCO)C[C@H]3O)c1)OCCO2 [compound 84]
11,6.31 nM,Nc1cc2c(c(C(=O)NC[C@@H]3CCN(CCCOC4CCCCC4)C[C@H]3O)c1)OCCO2 [compound 85]
12,132 nM,Nc1cc2c(c(C(=O)NC[C@@H]3CCN(CCOCCO)C[C@H]3O)c1)OCCO2 [compound 86]
13,257 nM,COc1cc2c(c(C(=O)NC[C@@H]3CCNC[C@H]3O)c1)OCCCO2 [compound 88]
14,30.9 nM,CNCCCCN1CC[C@@H](CNC(=O)c2cc(N)c(Cl)c3c2OCCO3)[C@H](O)C1 [compound 89]
15,34.7 nM,CNCCCCN1CC[C@@H](CNC(=O)c2cc(NC)cc3c2OCCO3)[C@H](O)C1 [compound 90]
16,229 nM,CNCCCCN1CC[C@@H](CNC(=O)c2cc(NC)cc3c2OCCCO3)[C@H](O)C1 [compound 91]
17,12 nM,Cc1nccnc1NCCN1CC[C@@H](CNC(=O)c2cc(N)c(Cl)c3c2OCCCO3)[C@H](O)C1 [compound 92]
18,17 nM,CC(C)OCCCN1CC[C@@H](CNC(=O)c2cc(N)c(Cl)c3c2OCCO3)[C@H](O)C1 [compound 93]
19,34.7 nM,CNCCCCN1CC[C@@H](CNC(=O)c2cc(N)c(Cl)c3c2OCCCO3)[C@H](O)C1 [compound 94]
20,36.3 nM,CNc1cc2c(c(C(=O)NC[C@@H]3CCN(CCNc4nccnc4C)C[C@H]3O)c1)OCCCO2 [compound 95]
21,6.17 nM,CC(C)OCCCN1CC[C@@H](CNC(=O)c2cc(N)c(Cl)c3c2OCCCO3)[C@H](O)C1 [compound 96]
22,15.8 nM,CNc1cc2c(c(C(=O)NC[C@@H]3CCN(CCCCO)C[C@H]3O)c1)OCCO2 [compound 97]
23,14.8 nM,Nc1cc2c(c(C(=O)NC[C@@H]3CCN(CCCCO)C[C@H]3O)c1)OCCO2 [compound 98]
24,72.4 nM,CS(=O)(=O)NCCN1CC[C@@H](CNC(=O)c2cc(N)cc3c2OCCCO3)[C@H](O)C1 [compound 99]
25,16.6 nM,CNc1cc(C(=O)NC[C@@H]2CCN(CCCO)C[C@H]2O)c2c(c1Cl)OCCO2 [compound 100]
26,50.1 nM,CNc1cc2c(c(C(=O)NC[C@@H]3CCN(CCCOC(C)C)C[C@H]3O)c1)OCCCO2 [compound 101]
27,120 nM,CNc1cc2c(c(C(=O)NC[C@@H]3CCN(CCNS(C)(=O)=O)C[C@H]3O)c1)OCCCO2 [compound 102]
